The supplement of paper PMC10290057
Counter-ions that a name gives are not always drawn.

System: HCT116
Assay: efficacy (fitted maximal change in viability relative to DMSO control); higher = less cytotoxic (negative = loss of viability)
Details: 48 h
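Also: Luminescence-based viability readout, five doses per compound, normalized against on-plate DMSO and empty-well controls, followed by dose-response curve fitting for every drug.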

SMILES	efficacy
CCOc1cc(N)c(Cl)cc1C(=O)NCC1CN(Cc2ccc(F)cc2)CCO1 (stereo unspecified) [Mosapride citrate]	-28.4%
N#CC1(c2ccc(NC(=O)c3cccnc3NCc3ccncc3)cc2)CCCC1 [Apatinib]	-32.7%
C[S+](=O)([O-])c1ccc(-c2cnc(N)c(C(=O)Nc3ccccc3)n2)cc1 [VE-821]	-26.1%
NCCc1ccc(O)c(O)c1 [Dopamine hydrochloride]	-16.8%
COc1cc2ncnc(Nc3cccc(Cl)c3F)c2cc1OC(=O)N1CCN(C)C[C@H]1C [AZD-3759]	-38.2%
Cc1cc(C)c(/C=C2\C(=O)Nc3ccccc32)[nH]1 [Semaxanib]	-29.1%
C[C@H]1COC2=C3N1\C=C(C(O)=O)/C(=O)C3=CC(=C2N4CCN(C)CC4)F [Levofloxacin]	-12.3%
COC1=CC=C(C=C1)C/2=C/OC3=C(C(=CC(=C3)O)O)C2=O [Biochanin A]	-34.7%
N/C(=N\OCC(O)CN1CCCCC1)c1cccnc1 (stereo unspecified) [BGP-15]	-14.5%
CC1=CC=C2N=C(NC(=O)CS\C3=N\C4=C(\SCC4)C(=O)N3C5=CC=CC=C5)SC2=C1 [IWP-2]	-12.9%
CO[C@H]1O[C@@H]2O[C@@]3(C)CC[C@H]4[C@H](C)CC[C@@H]([C@H]1C)[C@@]24OO3 [Artemether]	-12.5%
O=C1NC(=O)/C(=C\c2ccc(-c3ccc(F)cc3)o2)S1	-23.2%
C[C@]12CCC3c4ccc(O)cc4CCC3C1CCC2=O (stereo partly specified) [Estrone]	-24.4%
CC1Cc2ccccc2N1NC(=O)c1ccc(Cl)c([S+](N)(=O)[O-])c1 (stereo unspecified) [Indapamide]	-9.36%
C[C@]\12CC[C@H](O)CC1=C/C[C@@H]3[C@@H]2CC[C@@]\4(C)[C@H]3C\C=C4C5=CN=CC=C5 [Abiraterone]	7.6%
C[C@]12CC[C@@H]3c4ccc(O)cc4C[C@@H](CCCCCCCCC[S+]([O-])CCCC(F)(F)C(F)(F)F)[C@H]3[C@@H]1CC[C@@H]2O (stereo partly specified) [Fulvestrant]	-14.2%

SMILES	efficacy
Cc1cc(SCc2sc(-c3ccc(C(F)(F)F)cc3)nc2C)ccc1OCC(=O)O	-13.6%
O=C1O[C@]2(CC[C@@H](C(=O)Nc3ccn(-c4ccccc4F)n3)CC2)c2cnccc21 [MK-0557]	-11.9%
CC(C(=O)O)c1ccc(-c2ccccc2)c(F)c1 (stereo unspecified) [Flurbiprofen]	-9.87%
CCC1(C)CC(=O)NC1=O (stereo unspecified) [Ethosuximide]	-10.2%
N#Cc1ccnc(N2C(=O)CC[C@H]2C(=O)N(c2cncc(F)c2)C(C(=O)NC2CC(F)(F)C2)c2ccccc2Cl)c1 (stereo partly specified) [AG-120]	-22.2%
CC(C)c1onc(-c2c(Cl)cccc2Cl)c1COc1ccc(/C=C/c2cccc(C(=O)O)c2)c(Cl)c1 [GW-4064X]	-29.7%
CCCNCC(O)COc1ccccc1C(=O)CCc1ccccc1 (stereo unspecified) [Propafenone hydrochloride]	-43.8%
NC\1=N\C(=O)N(\C=C1)[C@@H]2CS[C@H](CO)O2 [Lamivudine]	-6.75%
[NH2][Pt]([NH2])([Cl])[Cl] [Cisplatin]	-25%
Nc1nc(N)c2nc(-c3cccc(O)c3)c(-c3cccc(O)c3)nc2n1	-7.47%
Cn1c(-c2ccccc2C(F)(F)F)nnc1C12CCC(c3noc(C4CC(F)(F)C4)n3)(CC1)CC2 [MK-4101]	-26.2%
CN1CCN(C)C(=O)C1C2=CC=C(N/C3=N/C(=C\N(C)C3=O)C4=C(C)C(=CC=C4)NC(=O)C5=CC6=C(CCCC6)S5)C=C2 (racemic) [GDC-0834 racemate]	-21.2%
C[C@]12CCC3[C@@H](CC[C@H]4NC(=O)\C=C/[C@]34C)[C@@H]1CC[C@@H]2C(=O)NC5=CC(=CC=C5C(F)(F)F)C(F)(F)F (stereo partly specified) [Dutasteride]	-20%
OC[C@H]1O[C@H]([C@H](O)[C@@H]1O)N2/C=C\C=N/C2=O [Zebularine]	-11.7%
Cc1noc(C)c1-c1ccc(-c2cc(C(N)=O)c(NC(N)=O)s2)c(O[C@H]2CCNC2)c1 [AZD-3264]	-40.3%
